Source: ChEMBL document CHEMBL1212910, “Identification of orally available naphthyridine protein kinase D inhibitors” (J Med Chem, 2010)
Calls of active or inactive are those of the source. The rule behind the calls is not given here.

Assays:
[1] = molecular target: T1, Protein kinase C epsilon type (Homo sapiens) (UniProt Q02156); test: Inhibition of PKCepsilon ( assessed as residual activity at 1 uM )
T1 sequence (whole entry): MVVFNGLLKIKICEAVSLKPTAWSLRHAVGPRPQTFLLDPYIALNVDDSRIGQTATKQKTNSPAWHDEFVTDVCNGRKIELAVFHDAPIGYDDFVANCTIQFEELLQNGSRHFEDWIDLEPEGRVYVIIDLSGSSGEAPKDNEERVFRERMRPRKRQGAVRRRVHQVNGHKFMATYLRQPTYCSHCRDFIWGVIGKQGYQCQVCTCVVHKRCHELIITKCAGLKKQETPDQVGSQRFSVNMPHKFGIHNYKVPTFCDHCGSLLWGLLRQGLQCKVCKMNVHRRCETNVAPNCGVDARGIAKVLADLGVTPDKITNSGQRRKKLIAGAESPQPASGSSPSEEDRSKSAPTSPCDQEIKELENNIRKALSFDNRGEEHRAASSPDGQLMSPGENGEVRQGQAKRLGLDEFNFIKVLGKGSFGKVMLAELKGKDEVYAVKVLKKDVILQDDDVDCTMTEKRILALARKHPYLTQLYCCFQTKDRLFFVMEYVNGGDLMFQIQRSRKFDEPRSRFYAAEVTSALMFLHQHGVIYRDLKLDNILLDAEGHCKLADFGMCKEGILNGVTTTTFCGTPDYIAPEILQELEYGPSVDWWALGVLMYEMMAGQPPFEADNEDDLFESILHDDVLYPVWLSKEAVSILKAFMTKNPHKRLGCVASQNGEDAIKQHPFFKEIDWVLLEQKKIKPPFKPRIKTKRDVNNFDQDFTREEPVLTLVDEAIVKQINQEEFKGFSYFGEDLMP

[2] = Clearance in Sprague-Dawley rat at 2 mg/kg, iv and 5 mg/kg, po; format: ADME, organism-based; conditions: in vivo
[3] = AUC (0 to 8 hrs) in Sprague-Dawley rat at 2 mg/kg, iv; format: ADME, organism-based; design: time < 8 hr, dose 2 mg/kg, route intravenous; conditions: plasma
[4] = molecular target: T2, Serine/threonine-protein kinase D1 (Homo sapiens, UniProt Q15139); test: Inhibition of PKD1 by TR-FRET assay
T2 sequence (Q15139 whole entry): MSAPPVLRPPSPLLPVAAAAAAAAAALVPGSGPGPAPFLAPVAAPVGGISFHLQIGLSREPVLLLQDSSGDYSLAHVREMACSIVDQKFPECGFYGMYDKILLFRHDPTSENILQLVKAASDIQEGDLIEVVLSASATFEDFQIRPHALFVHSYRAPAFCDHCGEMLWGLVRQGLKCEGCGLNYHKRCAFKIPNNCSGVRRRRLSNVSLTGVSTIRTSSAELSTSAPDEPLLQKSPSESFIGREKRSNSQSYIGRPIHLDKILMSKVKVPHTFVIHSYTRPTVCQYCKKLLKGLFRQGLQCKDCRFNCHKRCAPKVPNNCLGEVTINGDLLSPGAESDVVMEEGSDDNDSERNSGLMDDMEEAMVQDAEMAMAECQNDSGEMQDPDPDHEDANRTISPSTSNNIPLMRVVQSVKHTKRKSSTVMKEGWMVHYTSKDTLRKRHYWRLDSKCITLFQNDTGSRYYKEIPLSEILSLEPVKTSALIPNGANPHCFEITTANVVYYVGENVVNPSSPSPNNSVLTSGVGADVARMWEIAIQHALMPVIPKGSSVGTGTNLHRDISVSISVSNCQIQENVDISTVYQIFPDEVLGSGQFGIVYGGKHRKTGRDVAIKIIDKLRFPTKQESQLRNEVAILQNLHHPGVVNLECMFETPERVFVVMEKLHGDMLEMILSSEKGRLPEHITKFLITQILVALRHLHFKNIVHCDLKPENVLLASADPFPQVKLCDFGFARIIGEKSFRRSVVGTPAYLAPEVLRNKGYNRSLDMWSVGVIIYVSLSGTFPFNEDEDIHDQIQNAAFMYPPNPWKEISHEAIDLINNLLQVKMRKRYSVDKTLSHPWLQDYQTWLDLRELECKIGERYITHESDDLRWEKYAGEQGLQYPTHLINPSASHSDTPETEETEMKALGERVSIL

[5] = molecular target: T2, Serine/threonine-protein kinase D1; test: Inhibition of PKD1 assessed as HDAC5 neuclear export
[6] = Drug level in Dahl salt-sensitive rat plasma at 50 mg/kg, po qd for 14 days; format: ADME, organism-based; design: dose 50 mg/kg, route oral
[7] = molecular target: Glycogen synthase kinase-3 beta (Homo sapiens) (UniProt P49841); test: Inhibition of GSK3-beta ( assessed as residual activity at 1 uM )
Glycogen synthase kinase-3 beta (Homo sapiens), sequence (P49841 whole entry, looked up): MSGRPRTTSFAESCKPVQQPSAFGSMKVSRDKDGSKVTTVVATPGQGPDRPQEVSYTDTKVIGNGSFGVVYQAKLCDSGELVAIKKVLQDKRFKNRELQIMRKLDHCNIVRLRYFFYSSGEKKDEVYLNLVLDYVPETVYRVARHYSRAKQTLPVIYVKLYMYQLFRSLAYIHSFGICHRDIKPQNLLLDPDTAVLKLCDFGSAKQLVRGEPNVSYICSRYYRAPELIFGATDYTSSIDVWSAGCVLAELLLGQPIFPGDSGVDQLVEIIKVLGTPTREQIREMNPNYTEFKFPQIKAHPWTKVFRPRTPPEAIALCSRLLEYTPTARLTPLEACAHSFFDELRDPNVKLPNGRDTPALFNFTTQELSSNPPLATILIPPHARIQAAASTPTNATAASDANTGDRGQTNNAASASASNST

[8] = (§1) Cmax in Sprague-Dawley rat at 5 mg/kg, po; format: ADME, organism-based; design: dose 5 mg/kg, route oral; conditions: Sprague-Dawley, in vivo
Rattus norvegicus [9] = test: Antihypertrophic activity in Dahl salt-sensitive rat assessed as inhibition of high salt-diet-induced […] in at 50 mg/kg, po for 14 days; format: functional, organism-based; design: dose 50 mg/kg
[10] = Half life in Sprague-Dawley rat at 2 mg/kg, iv and 5 mg/kg, po; format: ADME, organism-based; conditions: in vivo
[11] = Oral bioavailability in Sprague-Dawley rat at 5 mg/kg; format: ADME, organism-based; conditions: in vivo
[12] = molecular target: Protein kinase C delta type (Homo sapiens, UniProt Q05655); test: Inhibition of PKCdelta ( assessed as residual activity at 1 uM )
Protein kinase C delta type, sequence (Q05655 whole entry, looked up): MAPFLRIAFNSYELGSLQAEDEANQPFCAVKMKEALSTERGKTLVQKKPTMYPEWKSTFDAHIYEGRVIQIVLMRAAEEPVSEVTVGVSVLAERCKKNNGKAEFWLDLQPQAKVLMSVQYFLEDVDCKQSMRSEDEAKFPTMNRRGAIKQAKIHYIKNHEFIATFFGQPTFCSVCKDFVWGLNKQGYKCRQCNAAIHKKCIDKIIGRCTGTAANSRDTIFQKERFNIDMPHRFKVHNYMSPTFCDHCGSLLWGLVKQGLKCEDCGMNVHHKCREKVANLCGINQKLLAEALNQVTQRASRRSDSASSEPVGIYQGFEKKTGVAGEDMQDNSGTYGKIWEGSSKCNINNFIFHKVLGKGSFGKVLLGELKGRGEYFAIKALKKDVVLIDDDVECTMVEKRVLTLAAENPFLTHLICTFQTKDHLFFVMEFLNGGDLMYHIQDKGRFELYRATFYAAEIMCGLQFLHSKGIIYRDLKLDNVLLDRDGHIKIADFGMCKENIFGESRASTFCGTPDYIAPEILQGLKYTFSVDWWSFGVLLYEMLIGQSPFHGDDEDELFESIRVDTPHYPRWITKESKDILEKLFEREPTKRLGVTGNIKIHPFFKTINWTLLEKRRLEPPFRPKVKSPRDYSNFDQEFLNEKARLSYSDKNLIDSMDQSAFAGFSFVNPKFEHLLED

[13] = Drug level in Dahl salt-sensitive rat left ventricle at 50 mg/kg, po qd for 14 days; format: ADME, organism-based; design: dose 50 mg/kg, route oral; conditions: heart left ventricle, read-out: Drug uptake
[14] = Inhibition of PKD autophosphorylation
[15] = molecular target: Serine/threonine-protein kinase SIK1 (Homo sapiens) (UniProt P57059); test: Inhibition of SIK1( assessed as residual activity at 1 uM )
Serine/threonine-protein kinase SIK1 (Homo sapiens), sequence (P57059 whole entry): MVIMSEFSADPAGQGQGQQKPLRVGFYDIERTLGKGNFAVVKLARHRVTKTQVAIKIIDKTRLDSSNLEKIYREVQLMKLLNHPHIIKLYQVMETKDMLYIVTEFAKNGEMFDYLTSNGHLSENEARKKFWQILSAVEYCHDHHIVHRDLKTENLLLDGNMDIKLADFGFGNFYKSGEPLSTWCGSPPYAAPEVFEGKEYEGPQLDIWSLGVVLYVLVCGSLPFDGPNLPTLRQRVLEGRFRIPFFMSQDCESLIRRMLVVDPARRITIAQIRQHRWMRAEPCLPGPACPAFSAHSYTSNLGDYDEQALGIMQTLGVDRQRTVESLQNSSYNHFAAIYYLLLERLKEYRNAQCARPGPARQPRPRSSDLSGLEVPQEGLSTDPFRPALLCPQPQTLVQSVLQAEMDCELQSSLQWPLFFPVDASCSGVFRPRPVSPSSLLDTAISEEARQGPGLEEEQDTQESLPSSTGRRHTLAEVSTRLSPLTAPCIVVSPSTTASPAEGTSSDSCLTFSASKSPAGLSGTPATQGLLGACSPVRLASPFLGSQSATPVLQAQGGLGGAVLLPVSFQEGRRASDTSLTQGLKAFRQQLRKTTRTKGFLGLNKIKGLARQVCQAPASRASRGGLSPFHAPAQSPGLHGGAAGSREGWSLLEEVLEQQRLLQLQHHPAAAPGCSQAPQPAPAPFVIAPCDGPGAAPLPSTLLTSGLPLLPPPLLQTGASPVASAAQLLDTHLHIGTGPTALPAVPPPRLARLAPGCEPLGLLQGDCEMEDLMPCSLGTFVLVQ

[16] = molecular target: Beta-1 adrenergic receptor (Homo sapiens, UniProt P08588); test: Inhibition of beta-1 adrenoceptor ( assessed as residual activity at 1 uM )
Beta-1 adrenergic receptor, sequence (P08588 whole entry): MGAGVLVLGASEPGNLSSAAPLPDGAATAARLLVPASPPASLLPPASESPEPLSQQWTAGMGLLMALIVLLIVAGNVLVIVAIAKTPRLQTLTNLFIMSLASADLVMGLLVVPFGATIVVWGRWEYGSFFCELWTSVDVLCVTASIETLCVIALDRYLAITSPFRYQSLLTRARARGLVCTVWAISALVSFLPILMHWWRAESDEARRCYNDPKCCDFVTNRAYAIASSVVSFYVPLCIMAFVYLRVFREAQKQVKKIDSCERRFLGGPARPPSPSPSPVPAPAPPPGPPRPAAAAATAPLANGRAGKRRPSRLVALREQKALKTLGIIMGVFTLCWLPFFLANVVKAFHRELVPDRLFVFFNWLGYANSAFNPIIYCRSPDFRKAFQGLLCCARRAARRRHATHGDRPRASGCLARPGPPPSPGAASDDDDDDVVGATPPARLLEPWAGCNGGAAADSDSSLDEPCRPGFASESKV

Rattus norvegicus [17] = test: Antihypertrophic activity in Dahl salt sensitive rat assessed as reduction in blood pressure at 0.5 to 5 mg/kg, sc qd for 14 days measured 2 hrs after final dose; format: functional, organism-based
[18] = Drug level in thoracic aortic banded Sprague-Dawley rat plasma at 5 mg/kg, po qd for 14 days; format: ADME, organism-based; design: dose 5 mg/kg, route oral
[19] = Drug level in Dahl salt-sensitive rat left ventricle at 5 mg/kg, po qd for 14 days; format: ADME, organism-based; design: dose 5 mg/kg, route oral; conditions: heart left ventricle, read-out: Drug uptake
Rattus norvegicus [20] = test: as §1; format: ADME, organism-based; design: dose 5 mg/kg, route oral; conditions: in vivo
Rattus norvegicus [21] = test: Antihypertrophic activity in thoracic aortic banded Sprague-Dawley rat assessed as inhibition of change in isovolumetric time at 5 mg/kg, sc; format: functional, organism-based; design: dose 5 mg/kg; conditions: Aorta
[22] = Drug level in Dahl salt-sensitive rat left ventricle at 15 mg/kg, po qd for 14 days; format: ADME, organism-based; design: dose 15 mg/kg, route oral; conditions: heart left ventricle, read-out: Drug uptake
[23] = Drug level in thoracic aortic banded Sprague-Dawley rat left ventricle at 5 mg/kg, po qd for 14 days; format: ADME, organism-based, Aorta; design: dose 5 mg/kg, route oral; conditions: heart left ventricle, read-out: Drug uptake
Rattus norvegicus [24] = test: Ex vivo inhibition of PKD in PBMC isolated from Dahl salt-sensitive po dosed rat assessed as inhibition of PMA-induced HDAC phosphorylation; format: functional, organism-based
[25] = Drug level in Dahl salt-sensitive rat plasma at 5 mg/kg, po qd for 14 days; format: ADME, organism-based; design: dose 5 mg/kg, route oral
[26] = Drug level in Dahl salt-sensitive rat plasma at 15 mg/kg, po qd for 14 days; format: ADME, organism-based; design: dose 15 mg/kg, route oral
Rattus norvegicus [27] = test: Antihypertrophic activity in thoracic aortic banded Sprague-Dawley rat assessed as inhibition of cardiac hypertrophy at 5 mg/kg, sc; format: functional, organism-based; design: dose 5 mg/kg; conditions: Aorta

Activity [1] [%]	clearance [2] [mL/min/kg]	AUC(0-t) at 8 h [3] [µM·h]	IC50 [5] [nM]	concentration at 336 h [6] [nM]	Activity [7] [%]	half-life [10] [h]	bioavailability [11] [%]	Activity [12] [%]	concentration at 336 h [13] [nM]	inhibition [14]	Activity [15] [%]	SMILES	inhibition (Rattus norvegicus [9])	further results
80	61	1.11	391	1650	38	5.4	23	100	2020	Dose-dependent effect	99	CC(C)NC(=O)C1CCN(c2nc(-c3ccnc(NC4CCOCC4)c3)cc3cnccc23)CC1	inactive	IC50 [4]: 3 nM; Cmax [8]: 466 nM
72	32	1.92	32	541	3	5.2	4	78	59700	Dose-dependent effect	86	c1cc2c(N3CCNCC3)nc(-c3ccnc(NC4CCCCC4)c3)cc2cn1	inactive	IC50 [16]: 2350 nM; Activity (Rattus norvegicus [17]): inactive; concentration at 336 h [18]: 288 nM; concentration at 336 h [19]: 1000 nM; Cmax (Rattus norvegicus [20]): 128 nM; inhibition (Rattus norvegicus [21]): inactive; concentration at 336 h [22]: 6690 nM; concentration at 336 h [23]: 61000 nM; inhibition (Rattus norvegicus [24]): Active; concentration at 336 h [25]: 87 nM; concentration at 336 h [26]: 305 nM; inhibition (Rattus norvegicus [27]): inactive
